Test results reported in the supplement of paper PMC13207355.

Tests used:
Details in all cases: exposure time: 72 h
E28 [1] = patient-derived glioblastoma stem cells of classical subtype; assay: surviving fraction (nuclei count normalised to DMSO); higher = more cells surviving (less toxic)
E57 [2] = patient-derived glioblastoma stem cells of mesenchymal subtype; assay: as above
E31 [3] = patient-derived glioblastoma stem cells of proneural subtype; assay: as above
E34 [4] = patient-derived glioblastoma stem cells of proneural subtype; assay: as above
E13 [5] = patient-derived glioblastoma stem cells of classical subtype; assay: as above
E21 [6] = patient-derived glioblastoma stem cells of mesenchymal subtype; assay: as above
FT3469 [7] = normal neural stem cell line; assay: as above
E28 [8] = assay: phenotypic distance (Euclidean, principal components) from DMSO controls (arbitrary units); higher = stronger morphological change
E57 [9] = assay: as above
E31 [10] = assay: as above
E34 [11] = assay: as above
E13 [12] = assay: as above
E21 [13] = assay: as above
FT3469 [14] = assay: as above
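Wherever phenotypic distance (Euclidean, principal components) from DMSO controls is given: cell Painting imaging in 384-well plates, CellProfiler features reduced to at least 20 principal components, Euclidean distance versus same-plate DMSO vehicle wells (0.1% v/v), median over six images per well.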
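Wherever surviving fraction (nuclei count normalised to DMSO) is given: nuclei counted by high-content imaging of Hoechst-stained cells in laminin-coated 384-well plates, relative to 0.1% DMSO vehicle wells, with staurosporine as cell-death control.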

Cc1ccc(S(=O)(=O)/C=C/C#N)cc1 [Bay 11-7082]
Details | phenotypic distance | surviving fraction
E13 [5], 4.1 nM | – | 0.964
E13 [5], 12.3 nM | – | 1.06
E13 [5], 37 nM | – | 1.03
E13 [5], 111.1 nM | – | 0.988
E13 [5], 333.3 nM | – | 0.976
E13 [5], 1000 nM | – | 0.692
E13 [5], 3000 nM | – | 0.0324
E13 [12], 4.1 nM | 0.928 | –
E13 [12], 12.3 nM | 0.789 | –
E13 [12], 37 nM | 0.388 | –
E13 [12], 111.1 nM | 0.428 | –
E13 [12], 333.3 nM | 0.7 | –
E13 [12], 1000 nM | 2.5 | –
E13 [12], 3000 nM | 13.2 | –
E21 [6], 4.1 nM | – | 1.01
E21 [6], 12.3 nM | – | 1.06
E21 [6], 37 nM | – | 0.902
E21 [6], 111.1 nM | – | 1
E21 [6], 333.3 nM | – | 0.952
E21 [6], 1000 nM | – | 0.67
E21 [6], 3000 nM | – | 0.000991
E21 [13], 4.1 nM | 0.363 | –
E21 [13], 12.3 nM | 0.689 | –
E21 [13], 37 nM | 0.461 | –
E21 [13], 111.1 nM | 0.482 | –
E21 [13], 333.3 nM | 0.803 | –
E21 [13], 1000 nM | 2.09 | –
E21 [13], 3000 nM | 18.7 | –
E28 [1], 4.1 nM | – | 1.16
E28 [1], 12.3 nM | – | 1.07
E28 [1], 37 nM | – | 1.02
E28 [1], 111.1 nM | – | 0.918
E28 [1], 333.3 nM | – | 0.805
E28 [1], 1000 nM | – | 0.523
E28 [1], 3000 nM | – | 0.00427
E28 [8], 4.1 nM | 0.601 | –
E28 [8], 12.3 nM | 0.591 | –
E28 [8], 37 nM | 0.652 | –
E28 [8], 111.1 nM | 1.11 | –
E28 [8], 333.3 nM | 1.33 | –
E28 [8], 1000 nM | 1.83 | –
E28 [8], 3000 nM | 16.4 | –
E31 [3], 4.1 nM | – | 0.981
E31 [3], 12.3 nM | – | 1.12
E31 [3], 37 nM | – | 1.07
E31 [3], 111.1 nM | – | 0.915
E31 [3], 333.3 nM | – | 0.833
E31 [3], 1000 nM | – | 0.574
E31 [3], 3000 nM | – | 0.00325
E31 [10], 4.1 nM | 0.798 | –
E31 [10], 12.3 nM | 0.511 | –
E31 [10], 37 nM | 0.513 | –
E31 [10], 111.1 nM | 0.736 | –
E31 [10], 333.3 nM | 0.957 | –
E31 [10], 1000 nM | 1.61 | –
E31 [10], 3000 nM | 15.2 | –
E34 [4], 4.1 nM | – | 1.17
E34 [4], 12.3 nM | – | 0.972
E34 [4], 37 nM | – | 1.03
E34 [4], 111.1 nM | – | 0.881
E34 [4], 333.3 nM | – | 1.04
E34 [4], 1000 nM | – | 0.841
E34 [4], 3000 nM | – | 0.208
E34 [11], 4.1 nM | 1.17 | –
E34 [11], 12.3 nM | 0.478 | –
E34 [11], 37 nM | 0.466 | –
E34 [11], 111.1 nM | 0.813 | –
E34 [11], 333.3 nM | 0.985 | –
E34 [11], 1000 nM | 0.91 | –
E34 [11], 3000 nM | 9.42 | –
E57 [2], 4.1 nM | – | 0.965
E57 [2], 12.3 nM | – | 0.935
E57 [2], 37 nM | – | 0.978
E57 [2], 111.1 nM | – | 0.894
E57 [2], 333.3 nM | – | 0.905
E57 [2], 1000 nM | – | 0.712
E57 [2], 3000 nM | – | 0.107
E57 [9], 4.1 nM | 0.529 | –
E57 [9], 12.3 nM | 0.37 | –
E57 [9], 37 nM | 0.668 | –
E57 [9], 111.1 nM | 0.846 | –
E57 [9], 333.3 nM | 1.16 | –
E57 [9], 1000 nM | 2.8 | –
E57 [9], 3000 nM | 8.7 | –
FT3469 [7], 4.1 nM | – | 0.987
FT3469 [7], 12.3 nM | – | 0.984
FT3469 [7], 37 nM | – | 0.932
FT3469 [7], 111.1 nM | – | 0.814
FT3469 [7], 333.3 nM | – | 0.809
FT3469 [7], 1000 nM | – | 0.714
FT3469 [7], 3000 nM | – | 0.0259
FT3469 [14], 4.1 nM | 0.889 | –
FT3469 [14], 12.3 nM | 0.728 | –
FT3469 [14], 37 nM | 0.551 | –
FT3469 [14], 111.1 nM | 0.796 | –
FT3469 [14], 333.3 nM | 1.04 | –
FT3469 [14], 1000 nM | 2.13 | –
FT3469 [14], 3000 nM | 17.6 | –
